{
  "source": "patent US20210300873A1",
  "about": "(Clear Creek Bio, Inc., priority 2020, published 2021)",
  "format": "physicochemical",
  "details": "sodium salt; for Stability of the polymorphic form (in words): storage, ambient condition (temperature and humidity) or closed cap",
  "note": "Where a name gives a salt, the structure may show the parent alone. Read-outs that look alike come from different tables or passages of the source.",
  "data": [
    {"smiles": "Cc1c(-c2ccc(-c3ccccc3F)cc2)nc2ccc(F)cc2c1C(=O)O", "note": "[Pattern A, brequinar sodium salt]", "values": [
      {"measurement": "Stability of the polymorphic form (in words)", "value": "metastable"}
    ]},
    {"smiles": "Cc1c(-c2ccc(-c3ccccc3F)cc2)nc2ccc(F)cc2c1C(=O)O", "note": "[Pattern B, brequinar sodium salt]", "values": [
      {"measurement": "Time after which the form converts to Pattern C", "setting": "ambient condition", "value": "Pattern C after 4 days at ambient"}
    ]},
    {"smiles": "Cc1c(-c2ccc(-c3ccccc3F)cc2)nc2ccc(F)cc2c1C(=O)O", "note": "[Pattern C, 6-Flouro-2-(2′-fluoro-1,1′-biphenyl-4-yl)-3-methyl-4-quinolinecarboxylic acid sodium salt]", "values": [
      {"measurement": "Stability of the polymorphic form (in words)", "setting": "listed as polymorphic form C", "value": "stable"}
    ]},
    {"smiles": "Cc1c(-c2ccc(-c3ccccc3F)cc2)nc2ccc(F)cc2c1C(=O)O", "note": "[Pattern D, brequinar sodium salt]", "values": [
      {"measurement": "Time after which the form converts to Pattern C", "setting": "ambient condition", "value": "to Pattern C after 3 days at ambient"},
      {"measurement": "Stability of the polymorphic form (in words)", "value": "unstable"}
    ]},
    {"smiles": "Cc1c(-c2ccc(-c3ccccc3F)cc2)nc2ccc(F)cc2c1C(=O)O", "note": "[Pattern E, brequinar sodium salt]", "values": [
      {"measurement": "Time after which the form converts to Pattern C", "setting": "closed cap storage", "value": "Pattern C after 1 week (closed cap weeks"}
    ]},
    {"smiles": "Cc1c(-c2ccc(-c3ccccc3F)cc2)nc2ccc(F)cc2c1C(=O)O", "note": "[Pattern F, brequinar sodium salt]", "values": [
      {"measurement": "Time after which the form converts to Pattern C", "setting": "closed cap storage", "value": "Pattern C after 1 week (closed cap weeks"}
    ]},
    {"smiles": "Cc1c(-c2ccc(-c3ccccc3F)cc2)nc2ccc(F)cc2c1C(=O)O", "note": "[Pattern G, brequinar sodium salt]", "values": [
      {"measurement": "Time after which the form converts to Pattern C", "setting": "ambient condition", "value": "to Pattern C after 2 weeks at ambient"}
    ]},
    {"smiles": "Cc1c(-c2ccc(-c3ccccc3F)cc2)nc2ccc(F)cc2c1C(=O)O", "note": "[Pattern I, brequinar sodium salt]", "values": [
      {"measurement": "Time after which the form converts to Pattern C", "setting": "ambient condition", "value": 2, "unit": "days"},
      {"measurement": "Stability of the polymorphic form (in words)", "value": "unstable"}
    ]},
    {"smiles": "Cc1c(-c2ccc(-c3ccccc3F)cc2)nc2ccc(F)cc2c1C(=O)O", "note": "[Pattern J, brequinar sodium salt]", "values": [
      {"measurement": "Time after which the form converts to Pattern C", "setting": "closed cap storage", "value": 2, "unit": "weeks"}
    ]}
  ]
}
